Among the test systems are CAKI-1; HCT-116; HL-60; HOP-62; MOLT-4; NCI-H226; NCI-H460; NCI-H522; NCI/ADR-RES; RPMI-8226; RXF 393; SK-MEL-2; SK-MEL-5; SR; SW-620; T47D; TK-10; U-251; HCC 2998.
Common to all, as to assay: growth of human tumour cells (NCI), 48 h

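48-hour exposure; five concentrations; linearly interpolated endpoints. The concentration for 50% growth inhibition is given as GI50.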 The source made the active and inactive calls. No stated cut-off is given here; in the data, active = GI50 up to about 1.1 µM and inactive = higher.

From ChEMBL document CHEMBL1201862, “PubChem BioAssay data set” (2004) come the findings set out here.

Regarding `Br/C(=N\N=c1/nn[nH][nH]1)c1ccncc1`, the GI50 in the test with CAKI-1, in the test with HCT-116, with HL-60, in the test with HOP-62, in the test on MOLT-4 and with NCI-H226 was > 100 µM (inactive) each time. The GI50 in the test on NCI-H460, in the test with NCI-H522, in the test with NCI/ADR-RES, in the test on RPMI-8226, in the test with RXF 393 and in the test with SK-MEL-2 was > 100 µM (inactive) throughout. Moreover, the GI50 in the test with SK-MEL-5, in the test with SR, in the test on SW-620, with T47D, in the test on TK-10 and with U-251 was > 100 µM (inactive) throughout.

Turning to `COC(=O)CCc1ccc2c(c1)CC1(C2)Cc2ccc3c(c2C1)CCC3` (stereo not given), the GI50 with HCC 2998 is 52.4 µM (inactive); with HCT-116, > 100 µM (inactive); in the test on HL-60 it was 30.3 µM (inactive); with HOP-62, > 100 µM (inactive); in the test with MOLT-4 it was 38.5 µM (inactive); with NCI-H226, > 100 µM (inactive). The GI50 in the test on NCI-H460 was > 100 µM (inactive); in the test with NCI-H522, 59.2 µM (inactive); with NCI/ADR-RES, > 100 µM (inactive); in the test on RPMI-8226, 31.3 µM (inactive); in the test with RXF 393, 49.1 µM (inactive); in the test on SK-MEL-5 it was 34.4 µM (inactive). The GI50 with SR is > 100 µM (inactive); in the test on SW-620, > 100 µM (inactive); in the test on T47D, 18.8 µM (inactive); in the test on TK-10, > 100 µM (inactive); with U-251 it was > 100 µM (inactive).

With `c1ccc2c(c1)nc1n2CCCn2ccnc2-1`, the GI50 with HCT-116 is > 100 µM (inactive); with HL-60 it was 0.225 µM (active); with HOP-62 it was > 100 µM (inactive); in the test on MOLT-4, > 100 µM (inactive); in the test with NCI-H226, 68.7 µM (inactive); in the test with NCI-H460, > 100 µM (inactive). For the same molecule, the GI50 in the test on NCI-H522 was > 100 µM (inactive); in the test on NCI/ADR-RES, 27 µM (inactive); in the test with RPMI-8226, > 100 µM (inactive); with RXF 393, > 100 µM (inactive); with SK-MEL-2, > 100 µM (inactive); in the test on SK-MEL-5, 87.3 µM (inactive). The GI50 with SR was > 100 µM (inactive); in the test on SW-620, > 100 µM (inactive); in the test with T47D it was 57.3 µM (inactive); in the test on U-251, > 100 µM (inactive).

As for `CSc1c(C#N)c(=O)[nH]c2[nH]nc(C)c12`, the GI50 with CAKI-1 is 22.1 µM (inactive); in the test with HCC 2998 it was > 100 µM (inactive); in the test with HCT-116, 33.3 µM (inactive); in the test on HL-60 it was > 100 µM (inactive); in the test on MOLT-4, > 100 µM (inactive); in the test on NCI-H226, > 100 µM (inactive). Moreover, the GI50 in the test with NCI-H460, in the test with NCI/ADR-RES, in the test on RPMI-8226, in the test with RXF 393, in the test with SK-MEL-2 and with SK-MEL-5 was > 100 µM (inactive) throughout. Moreover, the GI50 in the test with SR, in the test with SW-620, with T47D, with TK-10 and in the test with U-251 was > 100 µM (inactive) throughout.

Turning to `COC(=O)c1c(C)cccc1C1CN=NC12Cc1ccc(C)c(C)c1C2=O` (stereo not given), the GI50 is > 100 µM (inactive) in the test with CAKI-1; 23.5 µM (inactive) with HCC 2998; 14.8 µM (inactive) in the test with HCT-116; 8.59 µM (inactive) in the test with HL-60; 77.1 µM (inactive) in the test on HOP-62; 12.2 µM (inactive) with MOLT-4. Also, the GI50 was 44.6 µM (inactive) in the test on NCI-H226; 22.8 µM (inactive) in the test on NCI-H460; 12.9 µM (inactive) in the test on NCI-H522; 15.2 µM (inactive) in the test on NCI/ADR-RES; 9.84 µM (inactive) with RPMI-8226; 20.9 µM (inactive) with RXF 393. The GI50 is 16.6 µM (inactive) in the test with SR; 33.4 µM (inactive) in the test on SW-620; 3.2 µM (inactive) in the test on T47D; > 100 µM (inactive) in the test with TK-10; 35.2 µM (inactive) in the test with U-251.

For `COC(=O)/C=C/c1ccc2c(c1)[C@H](C(=O)OC)[C@@H](c1ccc(O)cc1)O2`, the GI50 was 45.3 µM (inactive) in the test with CAKI-1; 10.9 µM (inactive) in the test on HCC 2998; 38.5 µM (inactive) in the test with HCT-116; 6.27 µM (inactive) in the test on HL-60; 35.8 µM (inactive) with HOP-62; 8.45 µM (inactive) in the test on MOLT-4. The GI50 in the test with NCI-H226 is 55.8 µM (inactive); in the test with NCI-H460, 35.1 µM (inactive); in the test with NCI-H522, 21.4 µM (inactive); in the test with NCI/ADR-RES, 32.3 µM (inactive); in the test with RPMI-8226, > 10 µM (inactive); with SK-MEL-2, 4.62 µM (inactive). Moreover, the GI50 is 14.2 µM (inactive) with SK-MEL-5; 6.62 µM (inactive) in the test on SR; 6.08 µM (inactive) in the test with SW-620; 28.1 µM (inactive) in the test on T47D; 41.4 µM (inactive) in the test with TK-10; 21.9 µM (inactive) in the test with U-251.

Take `Cc1nc2ccc([N+](=O)[O-])cc2c(=O)n1C(=S)Nc1cccc(Cl)c1`: the GI50 in the test with CAKI-1 was 18.1 µM (inactive); in the test with HCC 2998, 9.02 µM (inactive); with HCT-116, 16 µM (inactive); in the test with HL-60, 14.2 µM (inactive); with HOP-62 it was 19.2 µM (inactive); in the test on MOLT-4, 17.9 µM (inactive). The GI50 with NCI-H226 was 14.9 µM (inactive); in the test with NCI-H460, 14.9 µM (inactive); in the test on NCI/ADR-RES, 19.4 µM (inactive); in the test on RPMI-8226, 4.06 µM (inactive); with RXF 393, 13.9 µM (inactive); in the test with SK-MEL-2 it was 6.18 µM (inactive). For the same molecule, the GI50 was 14.1 µM (inactive) in the test on SK-MEL-5; 31 µM (inactive) in the test with SR; 22 µM (inactive) with SW-620; 7.53 µM (inactive) in the test on T47D; 23.8 µM (inactive) in the test with TK-10; 18.5 µM (inactive) in the test on U-251.

On to `CCOC(=O)C1C/C(C)=C(/C)SCCCS1` (stereo not given), for which the GI50 is > 100 µM (inactive) in the test with HCC 2998; 50.2 µM (inactive) with HCT-116; 28.6 µM (inactive) in the test on HL-60; > 100 µM (inactive) in the test with HOP-62; 38.2 µM (inactive) in the test with MOLT-4; > 100 µM (inactive) with NCI-H226. In addition, the GI50 with NCI-H460 is > 100 µM (inactive); in the test with NCI-H522 it was 13.5 µM (inactive); in the test on NCI/ADR-RES, > 100 µM (inactive); in the test with RPMI-8226, 58.6 µM (inactive); with RXF 393, > 100 µM (inactive); in the test on SK-MEL-2, > 100 µM (inactive). In addition, the GI50 with SK-MEL-5 is 45.5 µM (inactive); in the test with SR, 65.5 µM (inactive); in the test with SW-620 it was > 100 µM (inactive); in the test on T47D, 60.3 µM (inactive); in the test with TK-10, > 100 µM (inactive); in the test on U-251 it was > 100 µM (inactive).

`N#Cc1c(=O)c2ccccc2n2ccccc12`: the GI50 in the test with CAKI-1 was > 100 µM (inactive); in the test with HCC 2998 it was > 100 µM (inactive); with HCT-116, > 100 µM (inactive); in the test on HL-60 it was > 100 µM (inactive); with NCI-H226, 24.9 µM (inactive); in the test on NCI-H460 it was > 100 µM (inactive). In addition, the GI50 is > 100 µM (inactive) in the test with NCI-H522; > 100 µM (inactive) with NCI/ADR-RES; > 100 µM (inactive) in the test with RPMI-8226; 13.4 µM (inactive) in the test on SK-MEL-2; > 100 µM (inactive) in the test on SK-MEL-5; > 100 µM (inactive) with SR. For the same molecule, the GI50 with SW-620 is 79.8 µM (inactive); in the test on T47D it was > 100 µM (inactive); with TK-10, > 100 µM (inactive); with U-251 it was > 100 µM (inactive).

As for `O=C(NCCCCCCNC(=O)c1cc(-c2ccccc2)nc2ccccc12)c1cc(-c2ccccc2)nc2ccccc12`, the GI50 in the test with CAKI-1 is > 100 µM (inactive); in the test on HCT-116, > 100 µM (inactive); in the test with HL-60, > 100 µM (inactive); in the test on HOP-62, 54.3 µM (inactive); in the test on MOLT-4, > 100 µM (inactive); in the test with NCI-H226, > 100 µM (inactive). Besides, the GI50 in the test with NCI-H460, with NCI-H522, with NCI/ADR-RES, with RPMI-8226, in the test with RXF 393 and in the test with SK-MEL-5 was > 100 µM (inactive) in each case. The GI50 in the test on SR is > 100 µM (inactive); with SW-620, > 100 µM (inactive); with T47D it was > 100 µM (inactive); in the test on TK-10, > 100 µM (inactive); with U-251, 88.3 µM (inactive).

On to `C/C(=N\NC(N)=S)c1ccccn1.OB(O)c1ccccc1`, for which the GI50 is 3.63 µM (inactive) in the test on CAKI-1; 4.36 µM (inactive) with HCC 2998; 3.5 µM (inactive) with HCT-116; 1.1 µM (active) with HL-60; 5.5 µM (inactive) in the test with HOP-62; 2.07 µM (inactive) in the test on MOLT-4. The GI50 in the test with NCI-H226 was 6.12 µM (inactive); in the test with NCI-H460 it was 3.78 µM (inactive); in the test on NCI-H522 it was 1.8 µM (inactive); in the test on NCI/ADR-RES, 3.7 µM (inactive); in the test on RPMI-8226, 5.87 µM (inactive); in the test on RXF 393, 2.37 µM (inactive). The GI50 in the test with SK-MEL-5 is 4.63 µM (inactive); with SR, 3.95 µM (inactive); with SW-620, 5.93 µM (inactive); with T47D, 3.8 µM (inactive); with TK-10 it was 14 µM (inactive); in the test on U-251, 3.28 µM (inactive).
